Reference: ChEMBL document CHEMBL5634148, “Synthesis and evaluation of novel pleuromutilin derivatives targeting the 50S ribosomal subunit for antibacterial ability” (Eur J Med Chem, 2023)
≈ marks a conversion by molar mass, not a printed value.

Assays:
Staphylococcus aureus [1] = assay: Antibacterial activity against Staphylococcus aureus ATCC 25923 assessed as bacterial growth inhibition incubated for 18 to 24 hrs by NCCLS based assay; format: functional; conditions: time 18-24 hrs
Streptococcus agalactiae = assay: Antibacterial activity against Streptococcus agalactiae assessed as bacterial growth inhibition incubated for 18 to 24 hrs by NCCLS based assay; format: functional; conditions: time 18-24 hrs
Enterococcus faecalis = assay: Antibacterial activity against Enterococcus faecalis assessed as bacterial growth inhibition incubated for 18 to 24 hrs by NCCLS based assay; format: functional; conditions: time 18-24 hrs
Staphylococcus aureus [2] = assay: Antibacterial activity against methicillin-resistant Staphylococcus aureus BNCC 337371 assessed as bacterial growth inhibition incubated for 18 to 24 hrs by NCCLS based assay; format: functional; conditions: time 18-24 hrs
Escherichia coli = assay: Antibacterial activity against Escherichia coli CICC 10389 assessed as bacterial growth inhibition incubated for 18 to 24 hrs by NCCLS based assay; format: functional; conditions: time 18-24 hrs
[3] = test system: Staphylococcus epidermidis; assay: Antibacterial activity against methicillin-resistant Staphylococcus epidermidis ATCC 51625 assessed as bacterial growth inhibition incubated for 18 to 24 hrs by NCCLS based assay; format: functional; conditions: time 18-24 hrs
Pasteurella multocida = assay: Antibacterial activity against Pasteurella multocida CVCC 1659 assessed as bacterial growth inhibition incubated for 18 to 24 hrs by NCCLS based assay; format: functional; conditions: time 18-24 hrs
Staphylococcus aureus [4] = assay: Bactericidal activity against Staphylococcus aureus incubated for 24 hrs by time kill assay; format: functional, organism-based
Staphylococcus aureus [5] = assay: Bactericidal activity against methicillin-resistant Staphylococcus aureus ATCC 29213 incubated for 24 hrs by time kill assay; format: functional, organism-based
Staphylococcus aureus [6] = assay: Antibacterial activity against methicillin-resistant Staphylococcus aureus ATCC 29213 assessed as reduction in bacterial count at 6 times MIC incubated for 24 hrs by time kill assay; format: functional
Staphylococcus aureus [7] = assay: Antibacterial activity against Staphylococcus aureus assessed as reduction in bacterial count at 6 times MIC incubated for 24 hrs by time kill assay; format: functional
Staphylococcus aureus [8] = assay: Antibacterial activity against methicillin-resistant Staphylococcus aureus infected in neutropenic Balb/c mouse model assessed as reduction in bacterial load in lungs at 40 mg/kg, iv measured after 5 days; format: functional; conditions: time 5 day
Staphylococcus aureus [9] = assay: Antibacterial activity against methicillin-resistant Staphylococcus aureus infected in neutropenic Balb/c mouse model assessed as reduction in bacterial load in lungs at 15 mg/kg, iv measured after 5 days; format: functional; conditions: time 5 day
[10] = Toxicity in neutropenic Balb/c mouse model infected with methicillin-resistant Staphylococcus aureus assessed as animal survival at 40 mg/kg, iv measured for 7 days; format: organism-based; conditions: in vivo, 168 h, time 7 day

SMILES	MIC (Staphylococcus aureus [1]) [µg/mL]	MIC (Streptococcus agalactiae) [µg/mL]	MIC (Enterococcus faecalis) [µg/mL]	MIC (Staphylococcus aureus [2]) [µg/mL]	MIC (Escherichia coli) [µg/mL]	MIC [3] [µg/mL]	MIC (Pasteurella multocida) [µg/mL]	Activity (Staphylococcus aureus [4])	Activity (Staphylococcus aureus [5])	log(activity) (Staphylococcus aureus [6])	log(activity) (Staphylococcus aureus [7])	Activity (Staphylococcus aureus [8]) [log10CFU/ml]	Activity (Staphylococcus aureus [9]) [log10CFU/ml]	Activity [10] [%]
C=C[C@]1(C)C[C@@H](OC(=O)CSc2ncnc(N3CCN(C)CC3)n2)[C@]2(C)[C@H](C)CC[C@]3(CCC(=O)[C@H]32)[C@@H](C)[C@@H]1O	0.125 (≈ 0.219 µM)	4 (≈ 7 µM)	≥ 64	0.125 (≈ 0.219 µM)	≥ 64	0.125 (≈ 0.219 µM)	≥ 64	–	–	–	–	–	–	–
C=C[C@]1(C)C[C@@H](OC(=O)CSc2ncnc(NCCN(C)C)n2)[C@]2(C)[C@H](C)CC[C@]3(CCC(=O)[C@H]32)[C@@H](C)[C@@H]1O	0.031 (≈ 0.0554 µM)	0.063 (≈ 0.113 µM)	16 (≈ 28.6 µM)	0.063 (≈ 0.113 µM)	≥ 64	0.125 (≈ 0.223 µM)	≥ 64	Dose-Dependent Effect	Dose-Dependent Effect	0.32	2.14	–	–	–
C=C[C@]1(C)C[C@@H](OC(=O)CSc2ncnc(N3CCCC3)n2)[C@]2(C)[C@H](C)CC[C@]3(CCC(=O)[C@H]32)[C@@H](C)[C@@H]1O	0.125 (≈ 0.23 µM)	0.25 (≈ 0.461 µM)	32 (≈ 59 µM)	0.125 (≈ 0.23 µM)	≥ 64	0.25 (≈ 0.461 µM)	≥ 64	–	–	–	–	–	–	–
C=C[C@]1(C)C[C@@H](OC(=O)CSc2ncnc(NCCN3CCCC3)n2)[C@]2(C)[C@H](C)CC[C@]3(CCC(=O)[C@H]32)[C@@H](C)[C@@H]1O	0.063 (≈ 0.108 µM)	0.125 (≈ 0.213 µM)	32 (≈ 54.6 µM)	0.125 (≈ 0.213 µM)	≥ 64	0.125 (≈ 0.213 µM)	≥ 64	–	–	–	–	–	–	–
C=C[C@]1(C)C[C@@H](OC(=O)CSc2ncnc(N(CC)CC)n2)[C@]2(C)[C@H](C)CC[C@]3(CCC(=O)[C@H]32)[C@@H](C)[C@@H]1O	0.125 (≈ 0.229 µM)	0.25 (≈ 0.459 µM)	≥ 64	0.25 (≈ 0.459 µM)	≥ 64	0.125 (≈ 0.229 µM)	≥ 64	–	–	–	–	–	–	–
C=C[C@]1(C)C[C@@H](OC(=O)CSc2ncnc(N3CCNCC3)n2)[C@]2(C)[C@H](C)CC[C@]3(CCC(=O)[C@H]32)[C@@H](C)[C@@H]1O	1 (≈ 1.79 µM)	0.25 (≈ 0.448 µM)	≥ 64	2 (≈ 3.59 µM)	≥ 64	2 (≈ 3.59 µM)	≥ 64	–	–	–	–	–	–	–
C=C[C@]1(C)C[C@@H](OC(=O)CSCCN(CC)CC)[C@]2(C)[C@H](C)CC[C@]3(CCC(=O)[C@H]32)[C@@H](C)[C@@H]1O [TIAMULIN]	0.25 (≈ 0.506 µM)	0.125 (≈ 0.253 µM)	16 (≈ 32.4 µM)	0.5 (≈ 1.01 µM)	≥ 64	0.5 (≈ 1.01 µM)	≥ 64	–	–	–	–	~2	1.24	50
C=C[C@]1(C)C[C@@H](OC(=O)CSc2ncnc(OC)n2)[C@]2(C)[C@H](C)CC[C@]3(CCC(=O)[C@H]32)[C@@H](C)[C@@H]1O	0.125 (≈ 0.248 µM)	0.125 (≈ 0.248 µM)	32 (≈ 63.5 µM)	0.25 (≈ 0.496 µM)	≥ 64	0.25 (≈ 0.496 µM)	≥ 64	–	–	–	–	–	–	–
C=C[C@]1(C)C[C@@H](OC(=O)CSc2ncnc(OC3CCCC3)n2)[C@]2(C)[C@H](C)CC[C@]3(CCC(=O)[C@H]32)[C@@H](C)[C@@H]1O	4 (≈ 7.17 µM)	8 (≈ 14.3 µM)	≥ 64	16 (≈ 28.7 µM)	≥ 64	16 (≈ 28.7 µM)	≥ 64	–	–	–	–	–	–	–
C=C[C@]1(C)C[C@@H](OC(=O)CSc2ncnc(N3CCCCC3)n2)[C@]2(C)[C@H](C)CC[C@]3(CCC(=O)[C@H]32)[C@@H](C)[C@@H]1O	0.063 (≈ 0.113 µM)	0.5 (≈ 0.898 µM)	32 (≈ 57.5 µM)	0.125 (≈ 0.225 µM)	≥ 64	0.125 (≈ 0.225 µM)	≥ 64	–	–	–	–	–	–	–
C=C[C@]1(C)C[C@@H](OC(=O)CSc2ncnc(OCCC)n2)[C@]2(C)[C@H](C)CC[C@]3(CCC(=O)[C@H]32)[C@@H](C)[C@@H]1O	16 (≈ 30.1 µM)	8 (≈ 15 µM)	≥ 64	16 (≈ 30.1 µM)	≥ 64	16 (≈ 30.1 µM)	≥ 64	–	–	–	–	–	–	–
